Laboratory results reported in PubChem BioAssay AID330 (DTP/NCI, 2004).
Values joined by “and” are separate entries in the source; they are usually repeats but may differ in a detail not shown here. Identical values can stand only once. Toxic doses and inconclusive results are not listed. The calls were made as follows: active = survival T/C of 150% or more; inactive = T/C below 125% in these data.

System: P388 leukemia ip, CD2F1 mice, survival T/C
Test: NCI In Vivo Anticancer Drug Screen. Data for tumor model P388 Leukemia (intraperitoneal) in CD2F1 (CDF1) mice
Details: endpoint: median survival time, higher = longer survival
Method in brief: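 Mice carrying the transplanted tumor received test compound or vehicle. Survival was recorded in each group, and the value is the treated-group measurement divided by that of the vehicle-treated control group.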

[1] = dose: 50.0 mg/kg/injection, schedule: Q01DX005 (ip), vehicle: saline with Tween-80
[2] = dose: 100.0 mg/kg/injection, schedule: Q01DX005 (ip), vehicle: saline with Tween-80
[3] = dose: 200.0 mg/kg/injection, schedule: Q01DX005 (ip), vehicle: saline with Tween-80
[4] = dose: 50.0 mg/kg/injection, schedule: Q01DX009 (ip), vehicle: Klucel (hydroxypropylcellulose) (HPC)
[5] = dose: 100.0 mg/kg/injection, schedule: Q01DX009 (ip), vehicle: Klucel (hydroxypropylcellulose) (HPC)
[6] = dose: 200.0 mg/kg/injection, schedule: Q01DX009 (ip), vehicle: Klucel (hydroxypropylcellulose) (HPC)
[7] = dose: 100.0 mg/kg/injection, schedule: Q04DX003 (ip), vehicle: saline with Tween-80
[8] = dose: 200.0 mg/kg/injection, schedule: Q04DX003 (ip), vehicle: saline with Tween-80
[9] = dose: 100.0 mg/kg/injection, schedule: Q01DX009 (ip), vehicle: saline
[10] = dose: 200.0 mg/kg/injection, schedule: Q01DX009 (ip), vehicle: saline
[11] = dose: 60.0 mg/kg/injection, schedule: Q01DX005 (ip), vehicle: saline with Tween-80
[12] = dose: 120.0 mg/kg/injection, schedule: Q01DX005 (ip), vehicle: saline with Tween-80
[13] = dose: 240.0 mg/kg/injection, schedule: Q01DX005 (ip), vehicle: saline with Tween-80
[14] = dose: 25.0 mg/kg/injection, schedule: Q01DX005 (ip), vehicle: Klucel (hydroxypropylcellulose) (HPC)
[15] = dose: 50.0 mg/kg/injection, schedule: Q01DX005 (ip), vehicle: Klucel (hydroxypropylcellulose) (HPC)
[16] = dose: 100.0 mg/kg/injection, schedule: Q01DX005 (ip), vehicle: Klucel (hydroxypropylcellulose) (HPC)
[17] = dose: 200.0 mg/kg/injection, schedule: Q01DX005 (ip), vehicle: Klucel (hydroxypropylcellulose) (HPC)

Measured: T/C

O=c1c(N2CCOCC2)c(N2CCOCC2)c1=O
inactive: dose: 100.0 mg/kg/injection, schedule: Q01DX001 (ip), vehicle: saline with Tween-80 100 % of control | dose: 200.0 mg/kg/injection, schedule: Q01DX001 (ip), vehicle: saline with Tween-80 95 % of control | dose: 400.0 mg/kg/injection, schedule: Q01DX001 (ip), vehicle: saline with Tween-80 90 % of control

O=c1cc(-c2ccc3ccccc3n2)oc2ccc(Cl)cc12
inactive: dose: 10.0 mg/kg/injection, schedule: Q01DX009 (ip), vehicle: saline 107 % of control | dose: 20.0 mg/kg/injection, schedule: Q01DX009 (ip), vehicle: saline 93 % of control | dose: 40.0 mg/kg/injection, schedule: Q01DX009 (ip), vehicle: saline 89 % of control

COc1ccc(C2/C(=N/O)CCCC2C)cc1 (stereo not drawn)
inactive: [1] 94 % of control | [2] 97 % of control | [3] 87 % of control

CCOC(=O)c1ccc(C(=O)OCC)nc1
inactive: dose: 25.0 mg/kg/injection, schedule: Q01DX001 (ip), vehicle: saline 100 % of control | dose: 50.0 mg/kg/injection, schedule: Q01DX001 (ip), vehicle: saline 100 % of control | dose: 100.0 mg/kg/injection, schedule: Q01DX001 (ip), vehicle: saline 100 % of control

C=C1C(=O)OC2CC(C)C3CC(OC)OC(OC)C3(C)CC12 (stereo not drawn)
inactive: [4] 105 % of control and 97 % of control | [5] 103 % of control and 114 % of control | [6] 123 % of control and 97 % of control | dose: 400.0 mg/kg/injection, schedule: Q01DX009 (ip), vehicle: Klucel (hydroxypropylcellulose) (HPC) 119 % of control

C[Si](C)(C)Cn1cc(F)c(=O)n(C[Si](C)(C)C)c1=O
inactive: dose: 60.0 mg/kg/injection, schedule: Q01DX005 (ip), vehicle: Klucel (hydroxypropylcellulose) (HPC) 103 % of control | dose: 120.0 mg/kg/injection, schedule: Q01DX005 (ip), vehicle: Klucel (hydroxypropylcellulose) (HPC) 103 % of control | dose: 240.0 mg/kg/injection, schedule: Q01DX005 (ip), vehicle: Klucel (hydroxypropylcellulose) (HPC) 97 % of control

N#CC(=C1C=CC(=NO)C=C1)c1ccc(Cl)cc1
inactive: dose: 50.0 mg/kg/injection, schedule: Q04DX003 (ip), vehicle: saline with Tween-80 91 % of control | [7] 100 % of control and 92 % of control | [8] 98 % of control and 105 % of control | dose: 400.0 mg/kg/injection, schedule: Q04DX003 (ip), vehicle: saline with Tween-80 117 % of control

[Cl][Sn]([c]1ccccc1)([c]1ccccc1)[c]1ccccc1
inactive: dose: 2.5 mg/kg/injection, schedule: Q01DX009 (ip), vehicle: saline 100 % of control | dose: 5.0 mg/kg/injection, schedule: Q01DX009 (ip), vehicle: saline 115 % of control

O=C1OC(c2ccc(O)cc2)(c2ccc(O)cc2)c2ccccc21
inactive: dose: 100.0 mg/kg/injection, schedule: Q04DX002 (ip), vehicle: saline with Tween-80 99 % of control | dose: 200.0 mg/kg/injection, schedule: Q04DX002 (ip), vehicle: saline with Tween-80 103 % of control | dose: 400.0 mg/kg/injection, schedule: Q04DX002 (ip), vehicle: saline with Tween-80 93 % of control

NC(=O)CCSC(N)=O
inactive: [1] 102 % of control | [2] 100 % of control | [3] 102 % of control

CCC(=O)NC(Cc1cccs1)C(=O)O (stereo not drawn)
inactive: dose: 6.25 mg/kg/injection, schedule: Q01DX009 (ip), vehicle: saline 107 % of control | dose: 12.5 mg/kg/injection, schedule: Q01DX009 (ip), vehicle: saline 105 % of control | dose: 25.0 mg/kg/injection, schedule: Q01DX009 (ip), vehicle: saline 93 % of control | [9] 88 % of control | [10] 91 % of control

COC1(OC)C2(Cl)CC(C(=O)O)C1(Cl)C(Cl)=C2Cl (stereo not drawn)
inactive: [11] 102 % of control | [12] 99 % of control | [13] 104 % of control

CCn1c2ccc([N+](=O)[O-])cc2c2c([N+](=O)[O-])c(N)ccc21
inactive: [1] 92 % of control | [2] 87 % of control | [3] 90 % of control

N#CC(=O)Nc1cc(Cl)cc(Cl)c1
inactive: dose: 7.5 mg/kg/injection, schedule: Q01DX005 (ip), vehicle: saline with Tween-80 100 % of control | dose: 15.0 mg/kg/injection, schedule: Q01DX005 (ip), vehicle: saline with Tween-80 102 % of control

COc1cccc(CN2CCN(N)CC2)c1
inactive: dose: 12.5 mg/kg/injection, schedule: Q01DX005 (ip), vehicle: Klucel (hydroxypropylcellulose) (HPC) 100 % of control | [14] 104 % of control | [15] 107 % of control | [16] 100 % of control

CC(C)=CC1C(C(=O)OC23C=CC(CC2C)C3)C1(C)C (stereo not drawn)
inactive: dose: 50.0 mg/kg/injection, schedule: Q01DX009 (ip), vehicle: saline 104 % of control | [9] 98 % of control | [10] 102 % of control

Oc1ccc(C(c2ccc(O)cc2)C(Cl)(Cl)Cl)cc1
inactive: dose: 50.0 mg/kg/injection, schedule: Q04DX003 (ip), vehicle: saline + Tween-80 + alcohol 104 % of control | dose: 100.0 mg/kg/injection, schedule: Q04DX003 (ip), vehicle: saline + Tween-80 + alcohol 101 % of control | dose: 200.0 mg/kg/injection, schedule: Q04DX003 (ip), vehicle: saline + Tween-80 + alcohol 103 % of control | dose: 400.0 mg/kg/injection, schedule: Q04DX003 (ip), vehicle: saline + Tween-80 + alcohol 111 % of control

CC(C)C1=CC2=C(CC1)C1(C)CCCC(C)(C(=O)O)C1CC2 (stereo not drawn)
inactive: dose: 100.0 mg/kg/injection, schedule: Q01DX009 (ip), vehicle: saline with Tween-80 100 % of control | dose: 200.0 mg/kg/injection, schedule: Q01DX009 (ip), vehicle: saline with Tween-80 100 % of control | dose: 400.0 mg/kg/injection, schedule: Q01DX009 (ip), vehicle: saline with Tween-80 100 % of control

c1ccc(CN2COc3c(ccc4ccccc34)C2)cc1
inactive: dose: 100.0 mg/kg/injection, schedule: Q04DX003 (ip), vehicle: Klucel (hydroxypropylcellulose) (HPC) 97 % of control | dose: 200.0 mg/kg/injection, schedule: Q04DX003 (ip), vehicle: Klucel (hydroxypropylcellulose) (HPC) 102 % of control | dose: 400.0 mg/kg/injection, schedule: Q04DX003 (ip), vehicle: Klucel (hydroxypropylcellulose) (HPC) 96 % of control

CC(=O)CC(=O)CCC(=O)Nc1cccc([N+](=O)[O-])c1
inactive: [11] 106 % of control | [12] 100 % of control | [13] 105 % of control

NS(=O)(=O)c1ccc(N=c2c3ccccc3n(Cc3ccccc3)c3ccccc23)cc1
inactive: [1] 88 % of control | [2] 94 % of control

CCCCCN(C)/N=N/c1nc[nH]c1C(N)=O
inactive: [7] 120 % of control | [8] 110 % of control | dose: 600.0 mg/kg/injection, schedule: Q04DX003 (ip), vehicle: saline with Tween-80 90 % of control

COc1ccc(C(C)c2cc3c(cc2OC)OCO3)cc1C (stereo not drawn)
inactive: [14] 104 % of control and 105 % of control | [15] 100 % of control and 109 % of control and 120 % of control | [16] 98 % of control and 105 % of control and 111 % of control | [17] 100 % of control and 110 % of control and 120 % of control | dose: 400.0 mg/kg/injection, schedule: Q01DX005 (ip), vehicle: Klucel (hydroxypropylcellulose) (HPC) 100 % of control

COc1ccc2c(c1)CCC1OC(c3cccnc3)OC21 (stereo not drawn)
inactive: [11] 99 % of control | [12] 99 % of control | [13] 97 % of control

CC(C)=CCCc1cc(-c2cc(CCC=C(C)C)nc(N)n2)nc(N)n1
inactive: dose: 60.0 mg/kg/injection, schedule: Q01DX005 (ip), vehicle: saline 99 % of control | dose: 120.0 mg/kg/injection, schedule: Q01DX005 (ip), vehicle: saline 103 % of control

CCOC(=O)C(Cl)(SC(Cl)(S(=O)(=O)c1ccccc1)S(=O)(=O)c1ccccc1)C(=O)OCC
inactive: [4] 102 % of control | [5] 99 % of control | [6] 97 % of control

CON/C=C(C#N)/C=C/C=Nc1ccc(S(=O)(=O)N=C(N)N)cc1
inactive: dose: 12.5 mg/kg/injection, schedule: Q01DX009 (ip), vehicle: saline with Tween-80 98 % of control | dose: 25.0 mg/kg/injection, schedule: Q01DX009 (ip), vehicle: saline with Tween-80 93 % of control | dose: 50.0 mg/kg/injection, schedule: Q01DX009 (ip), vehicle: saline with Tween-80 87 % of control and 92 % of control

C=Cc1c2ccccc2cc2ccccc12
inactive: [15] 109 % of control | [16] 106 % of control | [17] 100 % of control
